Assay results: publication PMC3591093, “De novo modeling of the F420-reducing [NiFe]-hydrogenase from a methanogenic archaeon by cryo-electron microscopy” (eLife, 2013)

Key:
[1] = target: T1, Frh complex (FrhABG), F420-reducing [NiFe]-hydrogenase (Methanothermobacter marburgensis, UniProt D9PYF6); experiment: cryo-EM structure; type: binding; conditions: 25 uM FAD in purification buffers; site in FrhB near the [4Fe-4S] cluster; ribose and ribitol density missing
T1 construct: gene frhB; FrhA C-terminus after His386 removed in maturation; FrhG most probably starts at Val39 of the 275-residue annotation; FrhA 45, FrhG 26, FrhB 31 kDa; with Coenzyme F420 hydrogenase subunit alpha; Coenzyme F420 hydrogenase subunit gamma
T1 sequence (D9PYF6 1-281): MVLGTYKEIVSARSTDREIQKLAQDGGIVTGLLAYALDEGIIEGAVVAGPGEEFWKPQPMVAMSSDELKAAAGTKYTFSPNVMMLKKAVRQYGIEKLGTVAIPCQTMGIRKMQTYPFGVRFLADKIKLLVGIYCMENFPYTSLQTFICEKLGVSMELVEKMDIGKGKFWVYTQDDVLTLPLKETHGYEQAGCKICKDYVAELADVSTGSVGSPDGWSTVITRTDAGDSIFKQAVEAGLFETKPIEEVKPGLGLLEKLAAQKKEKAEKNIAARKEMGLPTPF
T1 sequence (D9PYF9 1-386 partner): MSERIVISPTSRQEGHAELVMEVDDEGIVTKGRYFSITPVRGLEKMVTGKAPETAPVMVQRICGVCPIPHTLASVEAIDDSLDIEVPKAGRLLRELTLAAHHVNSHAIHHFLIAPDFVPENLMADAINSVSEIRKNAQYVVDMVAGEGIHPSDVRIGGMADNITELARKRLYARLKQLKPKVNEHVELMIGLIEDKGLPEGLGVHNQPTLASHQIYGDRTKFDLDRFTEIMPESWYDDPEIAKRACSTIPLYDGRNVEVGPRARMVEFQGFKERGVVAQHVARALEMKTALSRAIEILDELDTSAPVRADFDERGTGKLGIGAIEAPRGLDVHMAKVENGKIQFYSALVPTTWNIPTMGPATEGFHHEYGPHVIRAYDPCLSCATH
T1 sequence (D9PYF7 40-275 partner): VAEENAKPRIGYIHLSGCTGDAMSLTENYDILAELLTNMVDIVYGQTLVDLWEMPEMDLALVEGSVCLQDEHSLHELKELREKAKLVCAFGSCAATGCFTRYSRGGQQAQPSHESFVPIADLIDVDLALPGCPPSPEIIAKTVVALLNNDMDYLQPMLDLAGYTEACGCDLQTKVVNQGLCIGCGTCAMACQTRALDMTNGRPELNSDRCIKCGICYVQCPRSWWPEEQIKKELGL

[2] = target: T1, Frh complex (FrhABG), F420-reducing [NiFe]-hydrogenase; experiment: cryo-EM structure (map with versus without F420); type: binding; conditions: 0.5, 1.0 or 10 mM F420, oxygen-free; site in FrhB next to FAD isoalloxazine; only the isoalloxazine-like ring modelled, weak density

Row | Structure (SMILES) | cryo-EM structure [1] | cryo-EM structure (map with versus without F420) [2]
1 | Cc1cc2nc3c(=O)[nH]c(=O)nc-3n(C[C@H](O)[C@H](O)[C@H](O)COP(=O)(O)OP(=O)(O)OC[C@H]3O[C@@H](n4cnc5c(N)ncnc54)[C@H](O)[C@@H]3O)c2cc1C [FAD] | could be interpreted as the isoalloxazine ring of the FAD cofactor | 
2 | C[C@H](OP(=O)(O)OC[C@@H](O)[C@@H](O)[C@@H](O)Cn1c2nc(=O)[nH]c(=O)c-2cc2ccc(O)cc21)C(=O)N[C@@H](CCC(=O)N[C@@H](CCC(=O)O)C(=O)O)C(=O)O [F420] |  | We conclude that it represents the isoalloxazine ring of the F420 substrate.
